According to the supplement of paper PMC10307832:

Compound: CC[C@@H]1C(=O)N(C)c2cnc(Nc3ccc(C(=O)NC4CCN(C)CC4)cc3OC)nc2N1C1CCCC1 [BI-2536] + CS(=O)(=O)N1CCN(Cc2cc3nc(-c4cccc5[nH]ncc45)nc(N4CCOCC4)c3s2)CC1 [Pictilisib] (partner 1 µM)
Assay: relative viability (nuclei count vs DMSO), 5 days (fraction); higher = more cells survive
Details: first compound 0.01 µM
Procedure, shortened: (§1)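 Each reported value is a median over duplicate plates. It expresses relative viability: treated-well nuclei count divided by vehicle-well nuclei count. Lung cancer cell lines in 1536-well plates were dosed by pin tool a day after seeding, alone with one drug or with a fixed anchor-drug dose plus five library-drug doses (not always all listed) in √10 steps, and nuclei were counted after 5 days.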

Row | Cell Line | relative viability
1 | LK-2 | 0.569
2 | SK-MES-1 | 0.357
3 | COR-L23 | 0.636
4 | COR-L 105 | 0.437
5 | IA-LM | 0.346
6 | A549 | 0.46
7 | NCI-H2009 | 0.779
8 | NCI-H661 | 0.411
9 | SK-LU-1 | 0.499
10 | NCI-H1299 | 0.708
11 | CAL-12T | 0.536
12 | NCI-H2228 | 0.39
13 | NCI-H2023 | 0.218
14 | NCI-H1563 | 0.699

Same assay, conditions: first compound 0.03162 µM

Row | Cell Line | relative viability
15 | NCI-H727 | 0.338
16 | NCI-H1650 | 0.366
17 | EBC-1 | 0.232
18 | NCI-H1703 | 0.239
19 | NCI-H1993 | 0.681
20 | SW 1573 | 0.479
21 | NCI-H838 | 0.393
22 | LCLC-103H | 0.568
23 | NCI-H520 | 0.232
24 | NCI-H2126 | 0.48
25 | EMC-BAC-2 | 0.559
26 | NCI-H2085 | 0.504
27 | Calu-6 | 0.396
28 | HCC-366 | 0.179
29 | NCI-H1666 | 0.393
30 | NCI-H596 | 0.293
31 | LK-2 | 0.389
32 | SK-MES-1 | 0.374
33 | COR-L23 | 0.593
34 | COR-L 105 | 0.358
35 | IA-LM | 0.264
36 | A549 | 0.461
37 | NCI-H2009 | 0.358
38 | NCI-H661 | 0.37
39 | SK-LU-1 | 0.62
40 | NCI-H1299 | 0.351
41 | CAL-12T | 0.401
42 | NCI-H2228 | 0.374
43 | NCI-H2023 | 0.211
44 | NCI-H1563 | 0.61

Same assay, conditions: first compound 0.1 µM

Row | Cell Line | relative viability
45 | NCI-H727 | 0.433
46 | NCI-H1650 | 0.146
47 | EBC-1 | 0.147
48 | NCI-H1703 | 0.137
49 | NCI-H1993 | 0.638
50 | SW 1573 | 0.263
51 | NCI-H838 | 0.203
52 | LCLC-103H | 0.508
53 | NCI-H520 | 0.268
54 | NCI-H2126 | 0.27
55 | EMC-BAC-2 | 0.305
56 | NCI-H2085 | 0.371
57 | Calu-6 | 0.107
58 | HCC-366 | 0.0833
59 | NCI-H1666 | 0.2
60 | NCI-H596 | 0.198
61 | LK-2 | 0.375
62 | SK-MES-1 | 0.304
63 | COR-L23 | 0.101
64 | COR-L 105 | 0.23
65 | IA-LM | 0.0753
66 | A549 | 0.0515
67 | NCI-H2009 | 0.179
68 | NCI-H661 | 0.255
69 | SK-LU-1 | 0.42
70 | NCI-H1299 | 0.154
71 | CAL-12T | 0.178
72 | NCI-H2228 | 0.218
73 | NCI-H2023 | 0.091
74 | NCI-H1563 | 0.558

Same assay, conditions: first compound 0.3162 µM

Row | Cell Line | relative viability
75 | NCI-H727 | 0.265
76 | NCI-H1650 | 0.162
77 | EBC-1 | 0.158
78 | NCI-H1703 | 0.174
79 | NCI-H1993 | 0.664
80 | SW 1573 | 0.142
81 | NCI-H838 | 0.118
82 | LCLC-103H | 0.711
83 | NCI-H520 | 0.172
84 | NCI-H2126 | 0.247
85 | EMC-BAC-2 | 0.162
86 | NCI-H2085 | 0.183
87 | Calu-6 | 0.0926
88 | HCC-366 | 0.0304
89 | NCI-H1666 | 0.221
90 | NCI-H596 | 0.215
91 | LK-2 | 0.196
92 | SK-MES-1 | 0.157
93 | COR-L23 | 0.0743
94 | COR-L 105 | 0.237
95 | IA-LM | 0.0992
96 | A549 | 0.0559
97 | NCI-H2009 | 0.137
98 | NCI-H661 | 0.247
99 | SK-LU-1 | 0.201
100 | NCI-H1299 | 0.0991
101 | CAL-12T | 0.181
102 | NCI-H2228 | 0.13
103 | NCI-H2023 | 0.0927
104 | NCI-H1563 | 0.578

Same assay, conditions: first compound 1 µM

Row | Cell Line | relative viability
105 | NCI-H727 | 0.19
106 | NCI-H1650 | 0.0901
107 | EBC-1 | 0.119
108 | NCI-H1703 | 0.131
109 | NCI-H1993 | 0.631
110 | SW 1573 | 0.118
111 | NCI-H838 | 0.122
112 | LCLC-103H | 0.144
113 | NCI-H520 | 0.162
114 | NCI-H2126 | 0.253
115 | EMC-BAC-2 | 0.163
116 | NCI-H2085 | 0.224
117 | Calu-6 | 0.0965
118 | HCC-366 | 0.0488
119 | NCI-H1666 | 0.2
120 | NCI-H596 | 0.205
121 | LK-2 | 0.297
122 | SK-MES-1 | 0.127
123 | COR-L23 | 0.0991
124 | COR-L 105 | 0.216
125 | IA-LM | 0.0622
126 | A549 | 0.0422
127 | NCI-H2009 | 0.103
128 | NCI-H661 | 0.217
129 | SK-LU-1 | 0.157
130 | NCI-H1299 | 0.0448
131 | CAL-12T | 0.141
132 | NCI-H2228 | 0.165
133 | NCI-H2023 | 0.094
134 | NCI-H1563 | 0.511

Compound: CC[C@@H]1C(=O)N(C)c2cnc(Nc3ccc(C(=O)NC4CCN(C)CC4)cc3OC)nc2N1C1CCCC1 [BI-2536] + Nc1ncn([C@H]2C[C@H](O)[C@@H](CO)O2)c(=O)n1 [Decitabine] (partner 2 µM)
Assay: as above
Details: first compound 0.01 µM
Procedure, shortened: as §1

Row | Cell Line | relative viability
135 | NCI-H522 | 0.715
136 | NCI-H727 | 0.819
137 | NCI-H1650 | 0.388
138 | NCI-H1993 | 0.61
139 | SW 1573 | 0.473
140 | NCI-H838 | 0.445
141 | LCLC-103H | 0.792
142 | NCI-H520 | 0.538
143 | NCI-H2126 | 0.547
144 | EMC-BAC-2 | 0.986
145 | NCI-H2085 | 0.629
146 | HCC-366 | 0.407
147 | NCI-H1666 | 0.716
148 | NCI-H596 | 1.07
149 | LK-2 | 0.255
150 | SK-MES-1 | 0.335
151 | COR-L23 | 0.424
152 | COR-L 105 | 0.688
153 | A549 | 0.26
154 | SW 900 | 0.433
155 | NCI-H1648 | 0.536
156 | NCI-H2009 | 0.4
157 | NCI-H661 | 0.534
158 | SK-LU-1 | 0.61
159 | NCI-H2023 | 0.186

Same assay, conditions: first compound 0.03162 µM

Row | Cell Line | relative viability
160 | NCI-H522 | 0.626
161 | NCI-H727 | 0.841
162 | NCI-H1650 | 0.327
163 | NCI-H1993 | 0.601
164 | SW 1573 | 0.257
165 | NCI-H838 | 0.413
166 | LCLC-103H | 0.749
167 | NCI-H520 | 0.393
168 | NCI-H2126 | 0.591
169 | EMC-BAC-2 | 0.959
170 | NCI-H2085 | 0.484
171 | HCC-366 | 0.408
172 | NCI-H1666 | 0.68
173 | NCI-H596 | 1.25
174 | LK-2 | 0.254
175 | NCI-H2342 | 0.732
176 | SK-MES-1 | 0.351
177 | COR-L23 | 0.359
178 | COR-L 105 | 0.686
179 | A549 | 0.315
180 | SW 900 | 0.458
181 | NCI-H1648 | 0.451
182 | NCI-H2009 | 0.337
183 | NCI-H661 | 0.424
184 | SK-LU-1 | 0.726
185 | NCI-H2023 | 0.191

Same assay, conditions: first compound 0.1 µM

Row | Cell Line | relative viability
186 | NCI-H522 | 0.698
187 | NCI-H727 | 0.849
188 | NCI-H1650 | 0.278
189 | NCI-H1993 | 0.436
190 | SW 1573 | 0.095
191 | NCI-H838 | 0.185
192 | LCLC-103H | 0.652
193 | NCI-H520 | 0.226
194 | NCI-H2126 | 0.492
195 | EMC-BAC-2 | 0.866
196 | NCI-H2085 | 0.484
197 | HCC-366 | 0.248
198 | NCI-H1666 | 0.625
199 | NCI-H596 | 0.996
200 | LK-2 | 0.134
201 | NCI-H2342 | 0.637
202 | SK-MES-1 | 0.186
203 | COR-L23 | 0.149
204 | COR-L 105 | 0.542
205 | A549 | 0.246
206 | SW 900 | 0.384
207 | NCI-H1648 | 0.447
208 | NCI-H2009 | 0.324
209 | NCI-H661 | 0.278
210 | SK-LU-1 | 0.337
211 | NCI-H2023 | 0.112

Same assay, conditions: first compound 0.3162 µM

Row | Cell Line | relative viability
212 | NCI-H522 | 0.312
213 | NCI-H727 | 0.477
214 | NCI-H1650 | 0.11
215 | NCI-H1993 | 0.42
216 | SW 1573 | 0.0944
217 | NCI-H838 | 0.151
218 | LCLC-103H | 0.322
219 | NCI-H520 | 0.195
220 | NCI-H2126 | 0.247
221 | EMC-BAC-2 | 0.287
222 | NCI-H2085 | 0.301
223 | HCC-366 | 0.036
224 | NCI-H1666 | 0.411
225 | NCI-H596 | 0.611
226 | LK-2 | 0.0869
227 | NCI-H2342 | 0.514
228 | SK-MES-1 | 0.164
229 | COR-L23 | 0.104
230 | COR-L 105 | 0.352
231 | A549 | 0.0414
232 | SW 900 | 0.28
233 | NCI-H1648 | 0.195
234 | NCI-H2009 | 0.193
235 | NCI-H661 | 0.253
236 | SK-LU-1 | 0.316
237 | NCI-H2023 | 0.091

Same assay, conditions: first compound 1 µM

Row | Cell Line | relative viability
238 | NCI-H522 | 0.358
239 | NCI-H727 | 0.372
240 | NCI-H1650 | 0.148
241 | NCI-H1993 | 0.405
242 | SW 1573 | 0.0866
243 | NCI-H838 | 0.142
244 | LCLC-103H | 0.333
245 | NCI-H520 | 0.209
246 | NCI-H2126 | 0.244
247 | EMC-BAC-2 | 0.235
248 | NCI-H2085 | 0.303
249 | HCC-366 | 0.0402
250 | NCI-H1666 | 0.378
251 | NCI-H596 | 0.417
252 | LK-2 | 0.137
253 | NCI-H2342 | 0.433
254 | SK-MES-1 | 0.184
255 | COR-L23 | 0.13
256 | COR-L 105 | 0.322
257 | A549 | 0.0226
258 | SW 900 | 0.203
259 | NCI-H1648 | 0.29
260 | NCI-H2009 | 0.169
261 | NCI-H661 | 0.265
262 | SK-LU-1 | 0.249
263 | NCI-H2023 | 0.084
